Our source for the EC50 values is patent US20240246937A1 (MERCK SHARP & DOHME LLC, priority 2021, published 2024).

Sequence of recombinant IL4I1 (Q96RQ9 22-567): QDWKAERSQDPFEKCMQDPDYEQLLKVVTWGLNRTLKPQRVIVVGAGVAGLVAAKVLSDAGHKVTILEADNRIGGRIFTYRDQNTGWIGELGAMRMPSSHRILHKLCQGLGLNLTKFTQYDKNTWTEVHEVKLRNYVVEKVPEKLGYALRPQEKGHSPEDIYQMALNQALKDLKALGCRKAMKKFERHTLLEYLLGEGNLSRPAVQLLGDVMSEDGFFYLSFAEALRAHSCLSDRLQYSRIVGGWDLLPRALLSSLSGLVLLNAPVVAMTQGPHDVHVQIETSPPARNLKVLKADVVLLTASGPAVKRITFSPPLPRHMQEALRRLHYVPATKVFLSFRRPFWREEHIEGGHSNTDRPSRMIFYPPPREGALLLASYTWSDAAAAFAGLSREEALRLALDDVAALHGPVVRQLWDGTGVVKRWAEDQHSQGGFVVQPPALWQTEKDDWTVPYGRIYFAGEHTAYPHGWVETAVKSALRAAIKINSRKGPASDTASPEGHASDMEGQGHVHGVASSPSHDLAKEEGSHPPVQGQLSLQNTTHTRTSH

The target of the assay is recombinant IL4I1 (Homo sapiens (Human), UniProt Q96RQ9). Put plainly: IL4I1 Enzymatic Assay (Amplex Red/HRP coupled fluorescence detection of H2O2). The class given is biochemical. The following applies: 240 min; recombinant IL4I1, four-hour pre-incubation with compound. Here is the method:
Interleukin 4 inducible protein 1 (IL4I1) is an L-amino oxidase that catalyzes the oxidation of aromatic residues (Phe, Trp and Tyr): L-amino acid+H2O+O2→2-oxo acid+NH3+H2O2. Equal molar of H2O2 and the corresponding alpha-ketoacid are produced when IL4I1 and substrate are added. In this assay, the hydrogen peroxide generated by IL4I1 is then detected through a coupled reaction with Amplex® Red (10-acetyl-3,7-dihydroxyphenoxazine) and horseradish peroxidase (HRP) to produce resorufin product that could be detected in the form of fluorescence signals. The assessment of the inhibitory effect of small molecules (EC50) on IL4I1 is measured by the effectiveness of the compounds to inhibit the production of H2O2.
Using this assay, the potency (EC50) of each compound was determined from a ten-point (1:3 serial dilution) titration curve using the following outlined procedure. To each well of a black flat-bottom Greiner (Cat #781076) 384 well-plate, 25 nL of compound (0.1% DMSO in final assay volume of 25 μL) was dispensed, followed by the addition of 12.5 μL of 1× assay buffer (50 mM Hepes 7.0 and 0.005% Tween20 (Sigma, Cat #P8341; low peroxide grade)) containing 2 nM of recombinant IL4I1 (R&D Systems, Cat #5684-AO-020). Plates were placed in an ambient temperature humidified chamber for a four-hour pre-incubation with compound. Subsequently, each reaction was initiated by the addition of 12.5 μL 1× assay buffer containing 2 mM of each aromatic amino acids (Phe/Tyr/Trp), 0.1 mM Amplex Red and 2 U/mL of HRP. The final reaction in each well of 25 μL consisted of 1 nM of IL4I1, 1 mM of each residues (Phe, Tyr and Trp), 0.05 mM Amplex Red and 1 U/mL of HRP. It should be noted that the concentrations of Amplex Red and HRP used here were in excess such that the conversion of H2O2 to resorufin product occurred instantaneously and was non-rate limiting. Reactions were allowed to proceed for 120 minutes followed by fluorescence readout on a Spectramax with the following set parameters: 544 nm excitation/590 nm emission, 570 nm cutoff (EnVision is an alternative reader). Dose-response curves were generated by plotting percent effect (% product conversion; Y-axis) vs. Log10 compound concentrations (X-axis). EC50 values were calculated using a non-linear regression, four-parameters sigmoidal dose-response model and are shown in Potency Table 1.
Turning to `CC(c1ccc(-c2ccccc2)nc1)N1CCN(C2CCCC2)C(=O)C1=O` (single isomer, unassigned) [Example 99, (R or S)-1-cyclopentyl-4-(1-(6-phenylpyridin-3-yl)ethyl)piperazine-2,3-dione], the EC50 (commonly the concentration that produces a half-maximal response) was determined as 12 nM. Turning to `CC(c1ncc(-c2ccccc2)cn1)N1CCN(C2CCCC2)C(=O)C1=O` (single isomer, unassigned) [Example 133, (R or S)-1-cyclopentyl-4-(1-(5-phenylpyrimidin-2-yl)ethyl)piperazine-2,3-dione], the EC50 is 22 nM. In the case of `CC(c1ncc(-c2ccccc2)cn1)N1CCN(C2CCC2)C(=O)C1=O` (single isomer, unassigned) [Example 134, (R or S)-1-cyclobutyl-4-(1-(5-phenylpyrimidin-2-yl)ethyl)piperazine-2,3-dione] it was 40 nM.

In the case of `O=C1C(=O)N2CCCCC2CN1Cc1nnc(-c2ccccc2)s1` (single isomer, unassigned) [Example 180, (R or S)-2-((5-phenyl-1,3,4-thiadiazol-2-yl)methyl)hexahydro-2H-pyrido[1,2-a]pyrazine-3,4-dione], the concentration for a half-maximal effect (EC50) was determined as 97 nM. With `O=C1C(=O)N2CCCCC2CN1Cc1nnc(-c2ccccc2)s1` (single isomer, unassigned) [Example 182, (R or S)-2-((5-phenyl-1,3,4-thiadiazol-2-yl)methyl)hexahydro-2H-pyrido[1,2-a]pyrazine-3,4-dione] the figure was 14 nM; with `CC1CN(Cc2ncc(-c3ccccc3)cn2)C(=O)C(=O)N1C1CCCC1` (single isomer, unassigned) [Example 341, (R or S)-4-cyclopentyl-5-methyl-1-((5-phenylpyrimidin-2-yl)methyl)piperazine-2,3-dione], 19 nM.

For the compound `CC1CCC(N2CCN(Cc3ncc(-c4ccccc4)cn3)C(=O)C2=O)C1` (single isomer, unassigned) [Example 344, (R or S, R or S)-1-(3-methylcyclopentyl)-4-((5-phenylpyrimidin-2-yl)methyl)piperazine-2,3-dione], the EC50 turned out to be 49 nM. With `O=C1C(=O)N(C2CCC2)[C@H]2CCC[C@@H]2N1Cc1ccc(-c2ccccc2)nn1` (single isomer, unassigned) [Example 435A, (S,S or R,R)-1-cyclobutyl-4-((6-phenylpyridazin-3-yl)methyl)hexahydro-1H-cyclopenta[b]pyrazine-2,3-dione] the figure was 85 nM; with `O=C1C(=O)N(C2CCC2)C2CCCC2N1Cc1ccc(-c2ccccc2)nn1` (single isomer, unassigned) [Example 435B, (S,R or S,R)-1-cyclobutyl-4-((6-phenylpyridazin-3-yl)methyl)hexahydro-1H-cyclopenta[b]pyrazine-2,3-dione], 76 nM.

With `CC1CN(C2CCC2)C(=O)C(=O)N1Cc1nnc(-c2ccccc2)s1` (single isomer, unassigned) [Example 437, (R or S)-1-cyclobutyl-5-methyl-4-((5-phenyl-1,3,4-thiadiazol-2-yl)methyl)piperazine-2,3-dione], the concentration giving a half-maximal response (EC50) came to 34 nM.

On to `O=C1C(=O)N(C2CC[C@H](O)C2)CCN1Cc1nnc(-c2ccccc2)s1` (single isomer, unassigned) [Example 438, (R,S or S,R)-1-(3-hydroxycyclopentyl)-4-((5-phenyl-1,3,4-thiadiazol-2-yl)methyl)piperazine-2,3-dione], for which the concentration giving a half-maximal response (EC50) turned out to be 40 nM. In the case of `O=C1C(=O)N([C@@H]2CC[C@@H](c3ccccc3)C2)CCN1Cc1nnc(-c2ccccc2)s1` (single isomer, unassigned) [Example 440A, (R or S, R or S)-1-((5-phenyl-1,3,4-thiadiazol-2-yl)methyl)-4-(3-phenylcyclopentyl)piperazine-2,3-dione] it was 5 nM; in that of `O=C1C(=O)N([C@@H]2CC[C@@H](c3ccccc3)C2)CCN1Cc1nnc(-c2ccccc2)s1` (single isomer, unassigned) [Example 440B, (R or S, R or S)-1-((5-phenyl-1,3,4-thiadiazol-2-yl)methyl)-4-(3-phenylcyclopentyl)piperazine-2,3-dione], 6 nM; in that of `O=C1C(=O)N([C@@H]2CC[C@@H](c3ccccc3)C2)CCN1Cc1nnc(-c2ccccc2)s1` (single isomer, unassigned) [Example 440C, (R or S, R or S)-1-((5-phenyl-1,3,4-thiadiazol-2-yl)methyl)-4-(3-phenylcyclopentyl)piperazine-2,3-dione], 10 nM. Take `O=C1C(=O)N([C@@H]2CC[C@@H](c3ccccc3)C2)CCN1Cc1nnc(-c2ccccc2)s1` (single isomer, unassigned) [Example 440D, (R or S, R or S)-1-((5-phenyl-1,3,4-thiadiazol-2-yl)methyl)-4-(3-phenylcyclopentyl)piperazine-2,3-dione]: the concentration giving a half-maximal response (EC50) was determined as 8 nM. With `O=C1C(=O)N(C2CCC2)CCN1Cc1ccc(-c2ccccc2F)nn1` [Example 1, 1-cyclobutyl-4-((6-(2-fluorophenyl)pyridazin-3-yl)methyl)piperazine-2,3-dione] the figure was 10 nM. With `O=C1C(=O)N(C23CC(C2)C3)CCN1Cc1nnc(-c2cccc(F)c2)s1` [Example 2, 1-(bicyclo[1.1.1]pentan-1-yl)-4-((5-(3-fluorophenyl)-1,3,4-thiadiazol-2-yl)methyl)piperazine-2,3-dione] the figure was 9 nM. With `O=C1C(=O)N(C2CCCC2)CCN1Cc1ccc(-c2ccccc2)nn1` [Example 3, 1-cyclopentyl-4-((6-phenylpyridazin-3-yl)methyl)piperazine-2,3-dione], the concentration for a half-maximal effect (EC50) amounted to 12 nM. As to `O=C1C(=O)N(C2CCCC2)CCN1Cc1ncc(-c2ccccc2)cn1` [Example 4, 1-cyclopentyl-4-((5-phenylpyrimidin-2-yl)methyl)piperazine-2,3-dione], the EC50 stood at 19 nM.

Take `O=C1C(=O)N(C2CCCC2)CCN1Cc1ncc(-c2cncs2)cn1` [Example 5, 1-cyclopentyl-4-((5-(thiazol-5-yl)pyrimidin-2-yl)methyl)piperazine-2,3-dione]: the EC50 was found to be 50 nM. With `O=C1C(=O)N(C2CCCC2)CCN1Cc1ccc(-c2cnco2)nn1` [Example 6, 1-cyclopentyl-4-((6-(oxazol-5-yl)pyridazin-3-yl)methyl)piperazine-2,3-dione] the figure was 43 nM; with `O=C1C(=O)N(C2CC(c3ccccc3)C2)CCN1Cc1ccc(-c2ccccc2)nn1` (stereo not drawn) [Example 7, 1-(3-phenylcyclobutyl)-4-((6-phenylpyridazin-3-yl)methyl)piperazine-2,3-dione], 9 nM; with `O=C1C(=O)N(C2CCCC2)CCN1Cc1nnc(-c2cccc(F)c2)s1` [Example 8, 1-cyclopentyl-4-((5-(3-fluorophenyl)-1,3,4-thiadiazol-2-yl)methyl)piperazine-2,3-dione], 7 nM. With `O=C1C(=O)N(C2CCCC2)CCN1Cc1ccc(-c2ccccc2F)nn1` [Example 9, 1-cyclopentyl-4-((6-(2-fluorophenyl)pyridazin-3-yl)methyl)piperazine-2,3-dione] the figure was 15 nM.

`O=C1C(=O)N(C2CCCC2)CCN1Cc1ncc(-c2cncs2)cc1F` [Example 10, 1-cyclopentyl-4-((3-fluoro-5-(thiazol-5-yl)pyridin-2-yl)methyl)piperazine-2,3-dione]: the concentration for a half-maximal effect (EC50) is 21 nM. With `O=C1C(=O)N(C2CCCC2)CCN1Cc1ccc(-c2cncs2)nn1` [Example 11, 1-cyclopentyl-4-((6-(thiazol-5-yl)pyridazin-3-yl)methyl)piperazine-2,3-dione] the figure was 16 nM; with `O=C1C(=O)N(C2CCC2)CCN1Cc1ccc(-c2ccccc2)nn1` [Example 12, 1-cyclobutyl-4-((6-phenylpyridazin-3-yl)methyl)piperazine-2,3-dione], 8 nM; with `O=C1C(=O)N(C2CCCC2)CCN1Cc1nnc(-c2ccccc2F)s1` [Example 13, 1-cyclopentyl-4-((5-(2-fluorophenyl)-1,3,4-thiadiazol-2-yl)methyl)piperazine-2,3-dione], 8 nM.

With `O=C1C(=O)N(C2CCCC2)CCN1Cc1ccc(-c2cccc(F)c2)nn1` [Example 14, 1-cyclopentyl-4-((6-(3-fluorophenyl)pyridazin-3-yl)methyl)piperazine-2,3-dione], the EC50 is 6 nM. Regarding `O=C1C(=O)N(C2CCCC2)CCN1Cc1ccc(-c2cn[nH]c2)nn1` [Example 15, 1-((6-(1H-pyrazol-4-yl)pyridazin-3-yl)methyl)-4-cyclopentylpiperazine-2,3-dione], the 50% effective concentration (EC50) stood at 44 nM.
